Source: patent US8906897B2, “Antimicrobial agents based on hemin derivatives” (Obschestvo S Ogranichennoi Otvetstvennostiyu …, priority 2009, dated 2014)
≈ marks a conversion by molar mass, not a printed value.

What was measured:
Format in all cases: cell-based
[1] = system: Enterococcus faecalis No. 559; test: Specific activity against resistant bacterial strains
Method: (§1) The tested agents were water-soluble hemin derivatives (compounds VII and XVIII) or DMSO-soluble derivatives (compounds VIII, XV, and XIV). Vancomycin was the reference compound. Each compound was tested in three replicas.
(§2) Sterile single-use flat-bottomed 96-well plates, Petri dishes, pipettes, tips, and test tubes (Pan-Eco, Moscow) were used in the study.
(§3) The nutritional media used were as follows. A working Mueller Hinton broth was prepared from dry media (Mueller Hinton broth, Acumedia, Baltimore) and sterilized by autoclaving at 121° C. for 15 min.
(§4) Staphylococcus aureus was cultured on the Tripticase Soy Agar (BBL) commercially available dry medium. Enterococcus faecalis was cultured on the Columbia Agar Base (BBL) commercially available dry medium. These media were sterilized by autoclaving at 121° C. for 15 min.
(§5) Bacterial inoculum was fixed and equal to 5×10^5 CFU/mL.
(§6) For water-soluble compounds, wells from 2nd through 8th were added with the solvent (water) in an amount of 15 μL per well, then the 1st well was added with 30 μL of the stock solution of the tested compound in water with a concentration of 1×10^3M, and the concentration was adjusted to 0.007×10^3 M by serial twofold dilutions. A 10-μL portion was taken from every well, and 190 μL of the bacterial culture (10^5 CFU) was added per well.
(§7) For DMSO-soluble compounds, wells from 2nd through 8th were added with the solvent (DMSO) in an amount of 10 μL per well, then the 1st well was added with 20 μL of the stock solution of the tested compound in […] with a concentration of 5×10^3M, and the concentration was adjusted to 0.039×10^3 M by serial twofold dilutions. A 2-μL portion was taken from each well, and 198 μL of the bacterial culture (10^5 CFU) was added per well.
(§8) The control comprised wells free of tested compounds (culture growth control). In addition, purity control of nutritional media and solvents was used. Plates were incubated in a thermostat at 36° C. for 24 hours.
(§9) Culture growth was evaluated visually by comparison of how microorganisms grew in the presence of tested compounds and in the absence of them. MSC (the minimal suppressing concentration) was set equal to the last dilution of a tested agent which suppressed bacterial culture growth.

[2] = system: Staphylococcus aureus No. 100 KC; test: as above
Method: as §1, §2, §3, §4, §5, §6, §7, §8, §9

[3] = system: Staphylococcus aureus No. 25923 ATCC; test: as above
Method: as §1, §2, §3, §4, §5, §6, §7, §8, §9

[4] = system: Bacillus subtilis BKM B-501; test: Antibacterial activity (MIC/MBC), serial dilutions in liquid MH medium
Method: (§10) The antibacterial activity of compounds was determined against Bacillus subtilis BKM B-501, Staphylococcus aureus 209P, Enterococcus faecalis BKM B-871, and Micrococcus luteus BKM Ac-2230 strains (acquired from the All-Russia Collection of Microorganisms at the Institute for Biochemistry and Physiology of Microorganisms, Russian Academy of Sciences). The main parameters characterizing the antibacterial activity are the minimal inhibitory concentration (MIC) and minimal bactericidal concentration (MBC). […] MBC is the least concentration that causes the death of all cells.
(§11) MIC was quantified by inhibiting culture growth in a liquid medium with serial dilutions of compounds using a modified procedure [Amsterdam, D., “Susceptibility Testing of Antimicrobials in Liquid Media,” in Antibiotics in Laboratory Medicine, Ed. by Lorian, V., 4th ed., Baltimore: Williams and Wilkins, 1996, pp. 52-111].
(§12) Bacteria were cultured and tests were carried out on an MH liquid medium (Mueller-Hinton medium: a dry extract of beef broth, 4 g/L; starch, 1.5 g/L; casein hydrolyzate, 17.5 g/L; Sigma-Fluka Catalog No. 70192) at 37° C., 100% humidity, and under stirring. Cultures (4th through 7th receeding post-thawing) in the exponential growth phase were used for tests.
(§13) Therefore, a correction for absorption was applied in estimating the optical density of bacterial suspensions for each compound with account for its concentration in the well.
(§14) The protocol for experimental antibacterial activity determination for tested compounds was as follows. A cryovial with the test strain culture (Bacillus subtilis BKIVI B-501, Staphylococcus aureus 209P, Enterococcus faecalis BKM B-871, or Micrococcus luteus BKIVI Ac-2230) in a medium with 7% DMSO stored in liquid nitrogen, was rapidly defrosted, and 1.5 mL of the fresh MH medium was inoculated with 100 μL of the cell suspension. Cells were grown for one day at 37° C. and stirred on an orbital shaker at 150 rpm. The morphologic features of the strain and the absence of contamination with foreign bacteria were verified by: (a) inoculation on an agarized (15 g/L agar) MH medium and observation of the shape and color of the grown colonies and (b) examination of characteristic morphologic features under a microscope (Mikmed-2, LOMO, Russia) equipped with a 40× objective lens. Further bacteria were cultured in 1 mL of the liquid MH medium at 37° C. under stirring. The cells were reseeded every day. Cell cultures were used in tests starting with 3rd reseeding and ending with 6th one.
(§15) For testing, 5 μL of a bacterial suspension in the stationary growth phase was transferred to 1 mL of a sterile MH medium and incubated until the exponential growth phase was attained (3 to 5 h, 37° C., stirring at 150 rpm). To estimate the microorganisms concentration, the optical density (A) of the resulting bacterial culture was measured at a wavelength of 595 nm. The value of A=0.2 measured from a […] portion of the cell suspension in a 96-well plate, with a correction for the medium absorption applied, was set to correspond to 4×10^8 cells/mL for both strains used. Taking into account the cell concentration measurements, the suspension was diluted with the MH medium to a concentration of from 5×10^4 to 1×10^5 cells/mL and transferred to a sterile 96-well plate in an amount of 100 μL, per well. Then, the cells were added with tested compounds and twofold serial dilutions of these compounds in plate's wells were made.
(§16) The controls used were: 100 μL of an additive-free bacterial culture (four wells); a bacterial culture added with 1% DMSO or water in the same volume as in the wells with the maximal concentration of the tested compounds (four wells); and 100 μL of the sterile MH medium without bacteria and without tested compounds for control of occasional contamination in the plate (four wells).

[5] = system: Enterococcus faecalis BKM B-871; test: as above
Method: as §10, §11, §12, §13, §14, §15, §16

[6] = system: Micrococcus luteus BKM Ac-2230; test: as above
Method: as §10, §11, §12, §13, §14, §15, §16

[7] = system: Staphylococcus aureus 209P; test: as above
Method: as §10, §11, §12, §13, §14, §15, §16

Candida albicans No. 927 = test: Antifungal activity, culture growth with pH indicator; design: key to Test culture growth at various dilutions of the agent: (−) No growth; the indicator is blue; (±) Weak growth; the indicator is yellow, but the precipitate of grown cells looks as a diffuse spot; (+) Strong growth; the indicator is yellow, and the cell precipitate looks as a compact spot
Method: The subjects of action were Cryptococcus neoformans No. 3465 museum strain cells and Candida albicans No. 927 museum strain cells grown for one day on a glucose-peptone-yeast medium at 32° C. The reference compounds were the following antimycotics: pimafucin, amphotericin, and fluconazole.
Experiments were carried out on round-bottomed 96-well plates (Lenmedpolimer) in two replicas. To the first column (0), added was 10 μL of the stock solution of a water-soluble agent with concentrations of 10^−2 to 10^−3 mol/L; to the second column, added was also the same 10 μL plus 10 μL of the solvent corresponding to the given compound, suspended, 10 μL was transferred to the next well, and so on to the 8th well of the row. Stock solutions of water-insoluble compounds of general formula (I) (compounds V, VIII, XII, XIII, XIV, and hemin) were prepared in DMSO and were diluted with DMSO and the medium. DMSO concentrations in the reaction mixture in a well were ≦5%.
Then, to every well added was 190 μL of a Cr. neoformans cell culture suspension in a synthetic nutritional medium (so that the final cell concentration was approximately 10^3 CFU/mL), this medium containing Bromocresol Blue as a pH-indicator (pH: 5.5; indicator color: blue). As pH reduced to 4.5, the indicator in the culture changed its color to yellow, thereby indicating fungal cell growth. The synthetic medium comprised the following components: salts, amino acids, microelements, vitamins, an antibiotic, and glucose (30 components altogether) [Yarrow, D., “Methods for the Isolation, Maintenance and Identification of Yeasts,” in: The Yeasts. A Taxonomic Study, Ed. by Kurtsman, C. P, and Fell, M., Elsevier, 1998, pp. 77-100]. After being inoculated with a Cr. neoformans cell suspension, the plate was incubated at 32° C. for 1 h with stirring, then transferred to a stationary thermostat and incubated for two and five days at 27° C. After being inoculated with a C. albicans cell suspension, the plates were incubated for 1 h at 32° C. with stirring, then transferred to a stationary thermostat and incubated for one and four days at 27° C.

Cryptococcus humicolus = test: Antifungal activity against cryptococcosis causative agent (MSC)
[8] = system: Staphylococcus epidermidis No. 533; test: Specific activity against resistant bacterial strains; conditions: St. epiderm 533; 24 h, 36° C.
Method: as §1, §2, §3, §4, §5, §6, §7, §8, §9

[9] = system: Enterococcus faecium No. 569; test: as above; conditions: Ent. faecium 569; 24 h, 36° C.

CN[C@H](CC(C)C)C(=O)N[C@H]1C(=O)N[C@@H](CC(N)=O)C(=O)N[C@H]2C(=O)N[C@H]3C(=O)N[C@H](C(=O)N[C@H](C(=O)O)c4cc(O)cc(O)c4-c4cc3ccc4O)[C@H](O)c3ccc(c(Cl)c3)Oc3cc2cc(c3O[C@@H]2O[C@H](CO)[C@@H](O)[C@H](O)[C@H]2O[C@H]2C[C@](C)(N)[C@H](O)[C@H](C)O2)Oc2ccc(cc2Cl)[C@H]1O [Vancomycin, reference compound] was tested, and the MIC ([1]; Enterococcus faecalis, NO.559, read-out: MICs for Vancomycin) was 1 µg/mL (≈ 0.69 µM), the MIC ([2]; Staphylococcus aureus, NO.100KC, read-out: MICs for Vancomycin) was 1 µg/mL (≈ 0.69 µM) and the MIC ([3]; Staphylococcus aureus, NO.25923ATCC, read-out: MICs for Vancomycin) was 1 µg/mL (≈ 0.69 µM).
In the case of “Protohemin IX 6(7)-Mono(-Val-Gly-Ala-D-Leu-Ala-D-Val-Val-D-Val-Trp-D-Leu-X-D-Leu-Trp-D-Leu-Trp-NH—CH2CH2OH)amide [Compound XII]”, the MBC [4] is reported as 38 ± 13 µM, the MIC ([4]; 20 h, MH medium) is reported as 38 ± 13 µM and the MBC [5] is reported as >50^3 μM. The MIC ([5]; 20 h, MH medium) was 50 µM, the MBC [6] was >6.3^3 μM and the MIC ([6]; 20 h, MH medium) was 1.6 µM. The MBC [7] was >50^2 μM, the MIC ([7]; 20 h, MH medium) was 50 µM and the “Test culture growth at various dilutions of the agent” value (“Test culture growth” for short) (Candida albicans No. 927; dilution 0: 1 × 10^−4 M) was “±”. The “Test culture growth” value (Candida albicans No. 927; dilution : 2 of 1 × 10^−4 M) was “±”, the “Test culture growth” value (Candida albicans No. 927; dilution : 4 of 1 × 10^−4 M) was “±” and the “Test culture growth” value (Candida albicans No. 927; dilution : 8 of 1 × 10^−4 M) was “+”. For the same compound, the “Test culture growth” value (Candida albicans No. 927; dilution : 16 of 1 × 10^−4 M) was “+”, the “Test culture growth” value (Candida albicans No. 927; dilution : 32 of 1 × 10^−4 M) was “+” and the “Test culture growth” value (Candida albicans No. 927; dilution : 64 of 1 × 10^−4 M) was “+”. For the same compound, the MSC (Cryptococcus humicolus) was 12.5 µM.
For C=CC1=C(C)c2cc3[n-]c(cc4nc(cc5[n-]c(cc1n2)c(C)c5CCC(=O)N[C@@H](CCCNC(=N)N)C(=O)N[C@@H](CCCNC(=N)N)C(=O)OC)C(CCC(=O)N[C@@H](CCCNC(=N)N)C(=O)N[C@@H](CCCNC(=N)N)C(=O)OC)=C4C)c(C)c3C=C.[Cl-].[Fe+3] [Compound XXI, 6,7-bis[(N^α-L-Arginyl Methyl Ester)-L-Arginyl]-Protohemin IX], the “MICs for hemin derivatives against Gr+ strains” value (“MICs for hemin derivatives” below) ([1]; Ent. faecalis 559, 24 h, 36° C.) was 50 µM, the “MICs for hemin derivatives” value ([2]; St. aureus 100 KC, 24 h, 36° C.) was 50 µM and the “MICs for hemin derivatives” value ([3]; St. aureus 25923, 24 h, 36° C.) was 50 µM. The “MICs for hemin derivatives” value [8] was 50 µM and the “MICs for hemin derivatives” value [9] was over 50 µM.
